In test [1] the target is T1, PfAPH106-235 (Plasmodium falciparum, UniProt Q8I1U2, H145A).
T1 construct: gene PF3D7_0414600
Kind of test: biochemical.

Test [2] addresses T2, PfAPH106-235 (Plasmodium falciparum, UniProt Q8I1U2, K140A).
T2 construct: gene PF3D7_0414600
As to the kind of experiment: biochemical.

For test [3], the target named is T3, PfAPH106-235 (Plasmodium falciparum, UniProt Q8I1U2).
T3 construct: gene PF3D7_0414600; C-terminal PH domain, residues 106-235; codon-optimised gene, pNIC28a-Bsa4, E. coli BL21(DE3); N-terminal His6 tag cut by TEV
As to the kind of experiment: 1D 1H NMR LUV titration. Type of test: binding.

Test [4] deals with T4, PfAPH106-235 (Plasmodium falciparum, UniProt Q8I1U2, F144A/I143A).
T4 construct: gene PF3D7_0414600
Kind of test: biochemical.

The target in test [5] is T5, PfAPH106-235 (Plasmodium falciparum, UniProt Q8I1U2, K138A).
T5 construct: gene PF3D7_0414600
As to the kind of experiment: biochemical.

Test [6] deals with T6, PfAPH106-235 (Plasmodium falciparum, UniProt Q8I1U2, K138A/K140A).
T6 construct: gene PF3D7_0414600
As to the kind of experiment: biochemical.

The target of test [7] is T3, PfAPH106-235. As to the kind of experiment: 1H-15N HSQC NMR titration. Type of test: binding. From the text:
1H-15N HSQC NMR titration on PfAPH106-235 | binding to the short-chain PA is in the fast exchange regime on the NMR timescale

In a further test the target is T7, TgAPH99-229 (Toxoplasma gondii, UniProt A0A125YY72).
T7 construct: gene TGME49_249970; C-terminal PH domain, residues 99-229; codon-optimised gene, pNIC28a-Bsa4, E. coli BL21(DE3); N-terminal His6 tag cut by TEV
Kind of test: 1H-15N HSQC NMR titration. It is filed as binding. The following applies: free short-chain lipid; 250 μM protein; buffer pH 7.

T3 sequence (Q8I1U2 entry or part of it): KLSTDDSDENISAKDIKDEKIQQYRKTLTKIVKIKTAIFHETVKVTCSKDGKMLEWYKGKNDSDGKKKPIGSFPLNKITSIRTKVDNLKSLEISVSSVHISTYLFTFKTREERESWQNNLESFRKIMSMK
T6 sequence (Q8I1U2 106-235 K138A/K140A): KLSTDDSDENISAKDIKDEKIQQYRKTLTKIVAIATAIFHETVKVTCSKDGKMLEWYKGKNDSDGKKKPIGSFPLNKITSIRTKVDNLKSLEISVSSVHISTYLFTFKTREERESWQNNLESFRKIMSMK
T7 sequence (A0A125YY72 entry or part of it): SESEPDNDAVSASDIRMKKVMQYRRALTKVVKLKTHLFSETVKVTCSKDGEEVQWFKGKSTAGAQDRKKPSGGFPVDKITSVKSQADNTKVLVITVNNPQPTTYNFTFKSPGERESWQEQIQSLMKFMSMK
T1 sequence (Q8I1U2 106-235 H145A): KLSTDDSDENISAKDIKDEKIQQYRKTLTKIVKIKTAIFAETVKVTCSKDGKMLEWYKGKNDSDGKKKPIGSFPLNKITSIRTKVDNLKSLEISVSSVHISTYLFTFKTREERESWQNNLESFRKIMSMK
T4 sequence (Q8I1U2 106-235 F144A/I143A): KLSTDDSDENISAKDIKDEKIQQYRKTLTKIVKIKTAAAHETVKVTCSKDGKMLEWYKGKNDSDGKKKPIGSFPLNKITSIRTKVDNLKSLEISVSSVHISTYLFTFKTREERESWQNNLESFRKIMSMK
T2 sequence (Q8I1U2 106-235 K140A): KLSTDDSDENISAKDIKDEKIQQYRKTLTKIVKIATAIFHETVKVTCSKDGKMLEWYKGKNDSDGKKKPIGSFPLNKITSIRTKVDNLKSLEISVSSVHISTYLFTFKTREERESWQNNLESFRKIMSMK
T5 sequence (Q8I1U2 106-235 K138A): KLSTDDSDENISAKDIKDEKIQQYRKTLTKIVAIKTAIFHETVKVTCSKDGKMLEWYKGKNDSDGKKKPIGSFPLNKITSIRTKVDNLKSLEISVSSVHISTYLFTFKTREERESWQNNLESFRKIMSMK

The term Kd denotes the equilibrium constant for the complex coming apart. Take `CCCCCCCC/C=C\CCCCCCCC(=O)O[C@H](COC(=O)CCCCCCCCCCCCCCC)COP(=O)(O)O` [POPA, 1-palmitoyl-2-oleoyl-sn-glycero-3-phosphate]: the Kd was determined as 499 ± 9 µM on PfAPH106-235 [1]; 604 ± 29 µM on PfAPH106-235 [2]; 275 ± 13 µM on PfAPH106-235 [3]; 1320 µM on PfAPH106-235 [4]; 959 ± 35 µM at PfAPH106-235 [5]; 1490 µM at PfAPH106-235 [6].

Regarding `CCCCCCCC/C=C\CCCCCCCC(=O)O[C@H](COC(=O)CCCCCCCCCCCCCCC)COP(=O)([O-])OCC[N+](C)(C)C` [POPC, 1-palmitoyl-2-oleoyl-sn-glycero-3-phosphocholine], the Kd at PfAPH106-235 [3] stood at 1070 ± 33 µM.

As for `CCCCCCCC/C=C\CCCCCCCC(=O)O[C@H](COC(=O)CCCCCCCCCCCCCCC)COP(=O)(O)OC[C@H](N)C(=O)O` [POPS, 1-palmitoyl-2-oleoyl-sn-glycero-3-phospho-L-serine], the affinity at PfAPH106-235 [3], expressed as Kd, was 850 ± 13 µM.

On PfAPH106-235 [7], `CCCCCC(=O)OC[C@H](COP(=O)(O)O)OC(=O)CCCCC` [short-chain PA, 1,2-dihexanoyl-sn-glycero-3-phosphate] came in with a Kd greater than 50 µM. For the same compound, the “1H-15N HSQC NMR titration” value on TgAPH99-229 was “Binding experiments with recombinant APHs and short-chain PA enabled mapping”.

Values taken from paper PMC6084407, “Structural Basis of Phosphatidic Acid Sensing by APH in Apicomplexan Parasites” (Structure(London, England:1993), 2018).
